Measured values as given in PMC8949600, “In Vitro & In Vivo Studies on Identifying and Designing Temporin-1CEh from the Skin Secretion of Rana chensinensis as the Optimised Antibacterial Prototype Drug” (Pharmaceutics, 2022).
Read-outs that look alike come from different tables or passages of the source. Ends that are not written are not given here.

Columns and labels:
[1] = system: erythrocytes from defibrinated horse blood; details: 256 µM
Source text: (§4) The erythrocytes from defibrinated horse blood (TCS Biosciences Ltd., Buckingham, UK) were used to perform the haemolysis assay, as described previously [27]. Equal volumes of PBS and 2% (v/v) of the non-ionic detergent, Triton X-100 (Sigma–Aldrich, St. Louis, MO, USA) in PBS solution, were used as negative and positive controls, respectively. HC50 was defined as the mean peptide concentration producing 50% haemolysis.

[2] = system: K. pneumoniae (ATCC 43816); type: cell-based
Procedure: (§1) A measure of 5 × 10^5 CFU/mL of bacterial suspension including 2-fold dilution peptides (ranging from 1 µM to 512 µM) was incubated in 96-well plates for 16–20 h at 37 °C. For the positive and negative control, 200 mg/L of final concentration of norfloxacin and 1% DMSO were applied, respectively. […] Subsequently, 10 µL of the solution in each clear well was dropped on a Mueller–Hinton agar (MHA) plate and incubated at 37 °C for 16–20 h. The lowest concentration without colony growth was considered as the MBCs.
(§2) Mueller–Hinton broth (MHB) at pH 6.0 and 8.0 as well as MHB containing 10% of Fetal Bovine Serum (FBS), 150 mM of NaCl, 1 mM of MgCl2 and 4 µM of FeCl3, respectively, were prepared. In particular, the pathogens were diluted by the preprepared mediums to a final concentration of 5 × 10^5 CFU/mL after growing to the logarithmic phase, and other operations followed the MIC assay.

MRSA (NCTC 12493) = type: cell-based
Procedure: as §1, §2

E. coli (ATCC 8739) = type: cell-based
Procedure: as §1, §2

[3] = system: P. aeruginosa (ATCC 27853); type: cell-based
Procedure: as §1, §2

[4] = system: S. aureus (ATCC CRM 6538); type: cell-based
Procedure: as §1, §2

E. faecalis (NCTC 12697) = type: cell-based
Procedure: as §1, §2

[5] = system: erythrocytes from defibrinated horse blood; experiment: Haemolysis assay; details: for haemolytic activity (in words): compared with the preceding peptide of the design series
Source text: as §4

[6] = system: S. aureus (ATCC CRM 6538) biofilm; type: cell-based
Procedure: (§3) The anti-biofilm activities were tested on S. aureus and E. coli, as indicated previously. For the positive and negative control, 20 mg/mL of vancomycin and 1% DMSO were applied, respectively, in both assays. In addition, 0.1% Crystal Violet was used as the biofilm colouring agent.

[7] = system: E. coli (ATCC 8739) biofilm; type: cell-based
Procedure: as §3

[8] = 50% TFE environment ref 44; cited from earlier work
Source text: As the same situation found in the study of Temporin B KKG6A [31], T1CEh-KK experienced an improvement in antimicrobial activity, especially for the inhibition of the growth of E. coli. In addition, the substitution by proline leads to the weakening of the antimicrobial ability of T1CEh-KKP except for against S. aureus.

FVDLKKIANILNSIF-NH2 [Temporin-1CEh]
32 µM: MBC (E. faecalis (NCTC 12697); NCTC 12697) | MIC (E. faecalis (NCTC 12697); NCTC 12697) | MIC (E. faecalis (NCTC 12697); NCTC 12697, pH 7)
>512 µM: MIC ([2]; ATCC 43816, pH 6) | MIC ([2]; ATCC 43816, pH 8) | MIC (E. coli (ATCC 8739); ATCC 8739, pH 6) | MIC (E. coli (ATCC 8739); ATCC 8739, pH 8) | MIC ([3]; ATCC 27853, pH 6) | MIC ([3]; ATCC 27853, pH 8) | MIC (E. faecalis (NCTC 12697); NCTC 12697, pH 6) | MIC (E. faecalis (NCTC 12697); NCTC 12697, pH 8)
64 µM: MBIC [6]
128 µM: MIC (E. coli (ATCC 8739); ATCC 8739, pH 7) | MIC ([3]; ATCC 27853) | MIC ([3]; ATCC 27853, pH 7) | MIC ([4]; ATCC CRM 6538, pH 6) | MIC ([4]; ATCC CRM 6538, pH 8)
16 µM: MBC (MRSA (NCTC 12493); NCTC 12493) | MIC (MRSA (NCTC 12493); NCTC 12493) | MIC (MRSA (NCTC 12493); NCTC 12493, pH 7) | MBC ([4]; ATCC CRM 6538)
152.6 µM: HC50 ([5]; mean peptide concentration producing 50% haemolysis, horse erythrocytes)
256 µM: MBC ([2]; ATCC 43816) | MIC ([2]; ATCC 43816) | MIC ([2]; ATCC 43816, pH 7) | MIC (MRSA (NCTC 12493); NCTC 12493, pH 6) | MIC (MRSA (NCTC 12493); NCTC 12493, pH 8) | MBC ([3]; ATCC 27853)
128/128 μM: MIC (E. coli (ATCC 8739); ATCC 8739)
92.3%: haemolysis rate [1]
> 256 µM: MBEC [6]
8 µM: MIC ([4]; ATCC CRM 6538) | MIC ([4]; ATCC CRM 6538, pH 7)

KKWVPWKKIANIL-NH2 [Peptide T1CEh-KKPWW]
>512 µM: MIC (E. faecalis (NCTC 12697); NCTC 12697, pH 6)
8 µM: MIC ([2]; ATCC 43816, pH 8)
128 µM: MBC (E. faecalis (NCTC 12697); NCTC 12697) | MIC (E. faecalis (NCTC 12697); NCTC 12697) | MIC (E. faecalis (NCTC 12697); NCTC 12697, pH 7)
lower than 6%: haemolysis rates ([5]; concentration not stated at the place (gradient of Figure 4))
256 µM: MBC (MRSA (NCTC 12493); NCTC 12493) | MIC (MRSA (NCTC 12493); NCTC 12493, pH 6)
16 µM: MBC ([3]; ATCC 27853) | MIC ([3]; ATCC 27853) | MIC ([3]; ATCC 27853, pH 6) | MIC ([3]; ATCC 27853, pH 7)
64 µM: MIC (E. faecalis (NCTC 12697); NCTC 12697, pH 8)
> 256 µM: MBEC [6] | MBEC [7]
32 µM: MIC ([2]; ATCC 43816, pH 6) | MIC (MRSA (NCTC 12493); NCTC 12493) | MIC (MRSA (NCTC 12493); NCTC 12493, pH 7) | MIC (MRSA (NCTC 12493); NCTC 12493, pH 8) | MIC ([4]; ATCC CRM 6538, pH 6)
4 µM: MBC ([2]; ATCC 43816) | MIC ([2]; ATCC 43816) | MIC ([2]; ATCC 43816, pH 7) | MBC (E. coli (ATCC 8739); ATCC 8739) | MIC (E. coli (ATCC 8739); ATCC 8739) | MIC (E. coli (ATCC 8739); ATCC 8739, pH 6) | MIC (E. coli (ATCC 8739); ATCC 8739, pH 7) | MIC (E. coli (ATCC 8739); ATCC 8739, pH 8) | MIC ([3]; ATCC 27853, pH 8) | MBC ([4]; ATCC CRM 6538) | MIC ([4]; ATCC CRM 6538) | MIC ([4]; ATCC CRM 6538, pH 7) | MIC ([4]; ATCC CRM 6538, pH 8)

FVDLKKIANIL-NH2 [Peptide T1CEh-t]
completely lost: haemolytic activity (in words) ([5]; horse erythrocytes)
> 512 µM: MBC ([2]; ATCC 43816) | MIC ([2]; ATCC 43816) | MBC (MRSA (NCTC 12493); NCTC 12493) | MIC (MRSA (NCTC 12493); NCTC 12493) | MBC (E. coli (ATCC 8739); ATCC 8739) | MIC (E. coli (ATCC 8739); ATCC 8739) | MBC ([3]; ATCC 27853) | MIC ([3]; ATCC 27853) | MBC ([4]; ATCC CRM 6538) | MIC ([4]; ATCC CRM 6538) | MBC (E. faecalis (NCTC 12697); NCTC 12697) | MIC (E. faecalis (NCTC 12697); NCTC 12697)

KKFVDLKKIANIL-NH2 [Peptide T1CEh-KK]
256 µM: MBC ([3]; ATCC 27853) | MIC ([3]; ATCC 27853) | MIC ([4]; ATCC CRM 6538)
16 µM: MBC (E. coli (ATCC 8739); ATCC 8739)
128 µM: MBC ([2]; ATCC 43816) | MIC ([2]; ATCC 43816)
> 512 µM: MBC (MRSA (NCTC 12493); NCTC 12493) | MIC (MRSA (NCTC 12493); NCTC 12493) | MBC ([4]; ATCC CRM 6538) | MBC (E. faecalis (NCTC 12697); NCTC 12697)
8 µM: MIC (E. coli (ATCC 8739); ATCC 8739)
64 µM: MIC (E. faecalis (NCTC 12697); NCTC 12697)
maintained the low level of haemolysis: haemolytic activity (in words) ([5]; horse erythrocytes)

KKWVPLKKIANIL-NH2 [Peptide T1CEh-KKPW]
8 µM: MIC (E. coli (ATCC 8739); ATCC 8739) | MIC (E. coli (ATCC 8739); ATCC 8739, pH 7) | MIC (E. coli (ATCC 8739); ATCC 8739, pH 8) | MIC ([4]; ATCC CRM 6538) | MIC ([4]; ATCC CRM 6538, pH 7)
lower than 10%: haemolysis rate ([5]; at 256 μM, horse erythrocytes)
>512 µM: MIC (MRSA (NCTC 12493); NCTC 12493, pH 6) | MIC ([4]; ATCC CRM 6538, pH 6) | MIC (E. faecalis (NCTC 12697); NCTC 12697, pH 6) | MIC (E. faecalis (NCTC 12697); NCTC 12697, pH 7)
16 µM: MBC ([2]; ATCC 43816) | MIC ([2]; ATCC 43816) | MIC ([2]; ATCC 43816, pH 7) | MIC (MRSA (NCTC 12493); NCTC 12493) | MIC (MRSA (NCTC 12493); NCTC 12493, pH 7) | MBC (E. coli (ATCC 8739); ATCC 8739) | MIC (E. coli (ATCC 8739); ATCC 8739, pH 6) | MBC ([4]; ATCC CRM 6538) | MBIC [6] | MBIC [7]
32 µM: MIC ([3]; ATCC 27853) | MIC ([3]; ATCC 27853, pH 7) | MIC ([3]; ATCC 27853, pH 8) | MIC ([4]; ATCC CRM 6538, pH 8)
> 512 µM: MBC (E. faecalis (NCTC 12697); NCTC 12697) | MIC (E. faecalis (NCTC 12697); NCTC 12697)
128 µM: MIC ([2]; ATCC 43816, pH 8) | MIC (MRSA (NCTC 12493); NCTC 12493, pH 8)
256 µM: MIC ([2]; ATCC 43816, pH 6) | MIC (E. faecalis (NCTC 12697); NCTC 12697, pH 8)
64 µM: MBC (MRSA (NCTC 12493); NCTC 12493) | MBC ([3]; ATCC 27853) | MIC ([3]; ATCC 27853, pH 6)
> 256 µM: MBEC [6] | MBEC [7]

KKFVPLKKIANIL-NH2 [Peptide T1CEh-KKP]
128 µM: MBC (E. coli (ATCC 8739); ATCC 8739) | MIC (E. coli (ATCC 8739); ATCC 8739)
64 µM: MBC ([4]; ATCC CRM 6538)
256 µM: MBC (MRSA (NCTC 12493); NCTC 12493) | MIC (MRSA (NCTC 12493); NCTC 12493)
> 512 µM: MBC ([2]; ATCC 43816) | MIC ([2]; ATCC 43816) | MBC ([3]; ATCC 27853) | MBC (E. faecalis (NCTC 12697); NCTC 12697) | MIC (E. faecalis (NCTC 12697); NCTC 12697)
512 µM: MIC ([3]; ATCC 27853)
32 µM: MIC ([4]; ATCC CRM 6538)

FVDLKKIANII-NH2 [Peptide T1CEa-t]
completely lost: haemolytic activity (in words) ([5]; horse erythrocytes)
> 512 µM: MBC ([2]; ATCC 43816) | MIC ([2]; ATCC 43816) | MBC (MRSA (NCTC 12493); NCTC 12493) | MIC (MRSA (NCTC 12493); NCTC 12493) | MBC (E. coli (ATCC 8739); ATCC 8739) | MIC (E. coli (ATCC 8739); ATCC 8739) | MBC ([3]; ATCC 27853) | MIC ([3]; ATCC 27853) | MBC ([4]; ATCC CRM 6538) | MIC ([4]; ATCC CRM 6538) | MBC (E. faecalis (NCTC 12697); NCTC 12697) | MIC (E. faecalis (NCTC 12697); NCTC 12697)

Buforin II
43%: helicity percent [8]
